Series [1] relates to Caco-2 cells. Description: Caco-2 morphological analysis (optical microscopy). To be noted: 24 h.
Method: Sorbitol and 5-FU were used as positive controls, while untreated cells served as the negative control.
Caco-2 cells near confluency were trypsinized, counted, and then seeded at 3 × 10^4 cells/mL (3 mL) in 35 mm cell culture dishes previously treated for tissue culture. After cell adherence (48 h), they were incubated with solutions under study for 72 h in the absence of light. The cellular morphology was verified every 24 h using a CKX41 SF inverted microscope (Olympus, Tokyo, Japan) with 10, 20, or 40× objectives. A DC6 V digital camera (Olympus, Tokyo, Japan) coupled to the microscope was used to capture cell imaging. The morphology of cells in the presence or absence of treatments was compared.
Series [2] relates to Caco-2 cells. Description: Apoptosis (sub-G1 events) by PI staining and flow cytometry. To be noted: Caco-2, 600 mM, incubated for 24 h. In kind it is cell-based, human. On the procedure: Given that apoptosis is a common programmed mechanism regulating cell death, characterized by DNA fragmentation and an increase in sub-G1 events, we employed the method described by Riccardi and Nicolleti to assess potential apoptosis induction using flow cytometry. Cyanine dyes 5 and 10 were tested at concentrations of 1 µM and 10 µM, respectively. As positive controls for apoptosis, 600 mM sorbitol and 10 µM 5-FU were used, with untreated cells serving as the negative control. […] In contrast, dye 10 induced a slight increase in apoptosis, reaching 1.7%. […] Apoptotic bodies were more evident in cells treated with dye 5 compared to dye 10, which is further supported by the slightly higher apoptosis induction in this assay.
Apoptosis (sub-G1 events) and cell cycle distribution were evaluated by propidium iodide (PI) staining and flow cytometry, as described by Riccardi and Nicolleti. […] Untreated cells were used as the negative control, and sorbitol and 5-FU were used as positive controls. After incubation, the supernatant was collected in a centrifuge tube, cells were washed with PBS, trypsinized and wells were once again washed with PBS. This cell suspension was maintained on ice, centrifugated at 300 g for 5 min, and then the pellet was resuspended in 0.5 mL of PBS. Cells were fixed by adding 4.5 mL of 70% ethanol cooled at −20 °C on ice and were stored at −20 °C for a period ranging from one to a few days. On the day of flow cytometry analysis, PBS was added to the fixed cell tubes, followed by centrifugation and removal of the supernatant. The pellet was resuspended in 0.5 mL of PBS and 0.5 mL of DNA extraction solution (192 mL of 0.2 M sodium phosphate and 8 mL of […], pH 7.8). After incubation for 5 min, the cells were once again centrifuged, the supernatant was removed, and the pellet was resuspended in 0.3 mL of staining solution (20 µg/mL of PI and 0.2 mg/mL of DNase-free RNase in PBS). Using a FACSCalibur flow cytometer (Becton Dickinson, Franklin Lakes, NJ, USA) with a 488 nm laser line, a minimum of 20,000 events were acquired and recorded using the BD CellQuestTM Pro 4.0.2 software, and analyzed with FlowJo 10.5.3 software. To exclude debris and necrotic cells, events with a lower diameter (forward scatter; FCS) and PI fluorescence (FL3) than the hypodiploid apoptotic cells were eliminated (Figures S1 and S2). Two independent experiments were performed. A Student’s t-test was performed to evaluate the statistical significance of the results.
For orientation: A flow cytometer gives signals particle by particle.

This note sets out measurements from publication PMC11642940, “A New Demand for Improved Selectivity and Potency of Cyanine Dyes as Antiproliferative Agents Against Colorectal Cancer Cells” (Molecules, 2024).

Consider `OC[C@@H](O)[C@@H](O)[C@H](O)[C@@H](O)CO` [sorbitol, reference compound], for which the “morphological changes of Caco-2 cells” value with Caco-2 cells [1] is on record as “marked increase in apoptotic bodies”. In the series with Caco-2 cells [2], the “apoptosis (sub-G1 events), % of cells” value is on record as 37.9%.
